Data as given in ChEMBL document CHEMBL1201862, “PubChem BioAssay data set” (2004).
Activity calls are given as the source filed them.

What was measured:
[1] = miR-122 activators in hepatoma reporter cells, dose response, cell-based, Huh7 psiCHECK-miR122, Renilla luciferase, cherry-picked (AID 651956); assay type: functional;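 further: huh7 hepatoma cells stably carrying a psiCHECK-2 miR-122 sensor plasmid; renilla luciferase signal reporting endogenous miR-122 activity after 48 h compound exposure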
[2] = target: T1, Replicative DNA helicase DnaB (Mycobacterium tuberculosis, UniProt P9WMR3); test: DnaB intein splicing inhibitors, dose response, biochemical, cell-free fluorescence (AID 449749); assay type: functional
T1 sequence (P9WMR3 whole entry): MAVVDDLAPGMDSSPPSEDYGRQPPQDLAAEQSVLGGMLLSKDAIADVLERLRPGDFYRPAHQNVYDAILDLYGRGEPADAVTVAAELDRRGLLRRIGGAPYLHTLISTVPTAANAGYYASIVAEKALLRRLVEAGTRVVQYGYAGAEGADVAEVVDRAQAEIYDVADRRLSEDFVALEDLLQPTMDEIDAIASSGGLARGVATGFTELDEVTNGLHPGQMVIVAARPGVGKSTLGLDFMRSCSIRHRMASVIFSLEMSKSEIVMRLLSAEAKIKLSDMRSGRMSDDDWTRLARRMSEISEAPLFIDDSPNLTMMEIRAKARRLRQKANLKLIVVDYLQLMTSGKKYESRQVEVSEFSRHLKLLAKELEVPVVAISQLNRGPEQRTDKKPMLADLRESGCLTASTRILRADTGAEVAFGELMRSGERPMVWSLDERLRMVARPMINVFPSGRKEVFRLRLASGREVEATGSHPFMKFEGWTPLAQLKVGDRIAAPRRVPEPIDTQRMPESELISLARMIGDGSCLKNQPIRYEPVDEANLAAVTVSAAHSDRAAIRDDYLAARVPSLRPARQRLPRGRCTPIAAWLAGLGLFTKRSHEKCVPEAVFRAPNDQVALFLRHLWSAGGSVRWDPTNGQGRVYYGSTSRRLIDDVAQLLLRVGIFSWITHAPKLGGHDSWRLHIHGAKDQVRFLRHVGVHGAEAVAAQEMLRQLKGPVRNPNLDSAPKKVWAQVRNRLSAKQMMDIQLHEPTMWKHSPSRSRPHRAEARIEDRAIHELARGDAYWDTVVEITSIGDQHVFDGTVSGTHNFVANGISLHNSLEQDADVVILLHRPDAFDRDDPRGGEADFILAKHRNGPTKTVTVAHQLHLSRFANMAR

Protein RecA = target: T2, Protein RecA (Mycobacterium tuberculosis, UniProt P9WHJ3); test: Fluorescence Cell-Free Homogeneous Dose Retest to Identify Inhibitors of RecA-Intein Splicing Activity. [Related pubchem assays (depositor defined):AID2097, AID2223, AID489010, AID492950]; assay type: functional
T2 sequence (P9WHJ3 whole entry): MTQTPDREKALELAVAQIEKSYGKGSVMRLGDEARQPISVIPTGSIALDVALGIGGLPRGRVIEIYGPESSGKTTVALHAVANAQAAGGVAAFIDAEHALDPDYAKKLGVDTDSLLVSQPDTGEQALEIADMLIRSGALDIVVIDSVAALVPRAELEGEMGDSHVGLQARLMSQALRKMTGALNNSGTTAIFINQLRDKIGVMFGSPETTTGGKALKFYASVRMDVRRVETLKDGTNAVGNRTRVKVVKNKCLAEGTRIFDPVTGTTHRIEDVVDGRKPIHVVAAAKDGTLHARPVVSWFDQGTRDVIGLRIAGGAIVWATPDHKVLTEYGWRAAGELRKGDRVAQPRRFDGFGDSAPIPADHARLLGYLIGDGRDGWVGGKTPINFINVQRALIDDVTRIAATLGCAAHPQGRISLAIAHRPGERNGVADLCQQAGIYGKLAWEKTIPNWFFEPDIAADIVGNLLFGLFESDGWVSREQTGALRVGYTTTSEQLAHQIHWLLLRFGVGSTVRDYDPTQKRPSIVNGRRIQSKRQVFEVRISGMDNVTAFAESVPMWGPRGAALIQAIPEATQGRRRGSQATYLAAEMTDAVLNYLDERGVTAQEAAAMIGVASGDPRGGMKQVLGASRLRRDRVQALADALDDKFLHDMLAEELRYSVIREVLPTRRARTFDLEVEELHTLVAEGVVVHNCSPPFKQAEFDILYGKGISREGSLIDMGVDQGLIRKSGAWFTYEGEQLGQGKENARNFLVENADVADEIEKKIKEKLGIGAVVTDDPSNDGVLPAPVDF

[3] = target: T3, Sentrin-specific protease 8 (Homo sapiens, UniProt Q96LD8); assay type: functional
T3 sequence (Q96LD8 whole entry): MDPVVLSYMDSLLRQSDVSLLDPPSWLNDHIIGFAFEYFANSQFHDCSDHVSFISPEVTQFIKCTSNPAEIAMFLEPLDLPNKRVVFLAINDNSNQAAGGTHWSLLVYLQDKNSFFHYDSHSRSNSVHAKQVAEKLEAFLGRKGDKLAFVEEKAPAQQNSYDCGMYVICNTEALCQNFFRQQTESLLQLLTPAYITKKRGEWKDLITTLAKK

Mu-type opioid receptor = Mu-type opioid receptor (Homo sapiens, UniProt P35372); assay type: functional, cell-based;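 further: U2OS cells with beta-arrestin recruitment to OPRM1 by beta-gal complementation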
[4] = target: 5-hydroxytryptamine receptor 2A (Mus musculus, UniProt P35363); assay type: functional, cell-based;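 further: CHO-K1 cells with tagged receptor and beta-arrestin; agonist potency measured as compound-induced activation of the receptor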
[5] = target: T4, Tyrosine-protein phosphatase non-receptor type 11 (Homo sapiens, UniProt Q06124); test: SHP2 phosphatase inhibition, dose response, selectivity assay for STEP inhibitor project, biochemical (AID 602367); assay type: functional; settings: read-out: IC50_Mean
T4 sequence (Q06124 whole entry): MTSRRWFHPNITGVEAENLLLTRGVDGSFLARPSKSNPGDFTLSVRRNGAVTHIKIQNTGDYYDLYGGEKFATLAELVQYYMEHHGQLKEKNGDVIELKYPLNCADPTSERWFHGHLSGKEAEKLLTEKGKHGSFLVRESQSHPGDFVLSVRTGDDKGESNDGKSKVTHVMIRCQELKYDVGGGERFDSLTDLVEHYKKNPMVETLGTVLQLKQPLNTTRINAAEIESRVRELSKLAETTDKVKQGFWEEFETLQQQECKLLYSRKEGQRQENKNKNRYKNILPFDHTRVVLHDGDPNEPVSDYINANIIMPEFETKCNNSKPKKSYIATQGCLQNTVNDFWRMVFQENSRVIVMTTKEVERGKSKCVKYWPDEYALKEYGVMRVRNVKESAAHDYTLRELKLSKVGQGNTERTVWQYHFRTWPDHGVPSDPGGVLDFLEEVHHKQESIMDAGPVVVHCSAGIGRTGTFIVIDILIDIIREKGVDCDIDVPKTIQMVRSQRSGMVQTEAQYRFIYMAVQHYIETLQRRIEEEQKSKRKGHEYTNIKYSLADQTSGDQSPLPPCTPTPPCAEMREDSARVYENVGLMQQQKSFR

[6] = target: T5, Tyrosine-protein phosphatase non-receptor type 5 (Homo sapiens, UniProt P54829); test: STEP phosphatase inhibitors, confirmation, biochemical, fluorescence intensity, uHTS hits (AID 602372); assay type: functional; settings: read-out: IC50_Mean
T5 sequence (P54829 whole entry): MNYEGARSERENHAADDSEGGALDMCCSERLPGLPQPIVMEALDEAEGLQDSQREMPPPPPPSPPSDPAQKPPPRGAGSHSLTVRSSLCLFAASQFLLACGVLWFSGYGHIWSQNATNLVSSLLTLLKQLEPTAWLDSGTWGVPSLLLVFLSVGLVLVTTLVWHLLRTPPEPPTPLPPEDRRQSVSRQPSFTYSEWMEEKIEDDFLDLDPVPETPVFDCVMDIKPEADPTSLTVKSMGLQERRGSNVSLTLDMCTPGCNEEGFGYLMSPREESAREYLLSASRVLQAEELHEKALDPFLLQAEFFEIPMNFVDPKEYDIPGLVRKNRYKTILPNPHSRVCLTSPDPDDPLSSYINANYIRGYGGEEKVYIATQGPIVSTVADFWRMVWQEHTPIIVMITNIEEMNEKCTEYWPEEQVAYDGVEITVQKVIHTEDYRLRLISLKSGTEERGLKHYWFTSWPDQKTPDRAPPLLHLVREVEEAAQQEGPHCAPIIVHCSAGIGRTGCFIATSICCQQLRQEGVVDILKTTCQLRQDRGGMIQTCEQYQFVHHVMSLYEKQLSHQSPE

[7] = target: Dual specificity protein phosphatase 3 (Homo sapiens, UniProt P51452); test: VHR phosphatase inhibition, dose response, selectivity assay for STEP inhibitor project, biochemical (AID 602374); assay type: functional; settings: read-out: IC50_Mean
[8] = target: T6, Tyrosine-protein phosphatase non-receptor type 22 (Homo sapiens, UniProt Q9Y2R2); test: PTPN22 phosphatase inhibition, dose response, selectivity assay for STEP inhibitor project, biochemical (AID 624241); assay type: functional
T6 sequence (Q9Y2R2 whole entry): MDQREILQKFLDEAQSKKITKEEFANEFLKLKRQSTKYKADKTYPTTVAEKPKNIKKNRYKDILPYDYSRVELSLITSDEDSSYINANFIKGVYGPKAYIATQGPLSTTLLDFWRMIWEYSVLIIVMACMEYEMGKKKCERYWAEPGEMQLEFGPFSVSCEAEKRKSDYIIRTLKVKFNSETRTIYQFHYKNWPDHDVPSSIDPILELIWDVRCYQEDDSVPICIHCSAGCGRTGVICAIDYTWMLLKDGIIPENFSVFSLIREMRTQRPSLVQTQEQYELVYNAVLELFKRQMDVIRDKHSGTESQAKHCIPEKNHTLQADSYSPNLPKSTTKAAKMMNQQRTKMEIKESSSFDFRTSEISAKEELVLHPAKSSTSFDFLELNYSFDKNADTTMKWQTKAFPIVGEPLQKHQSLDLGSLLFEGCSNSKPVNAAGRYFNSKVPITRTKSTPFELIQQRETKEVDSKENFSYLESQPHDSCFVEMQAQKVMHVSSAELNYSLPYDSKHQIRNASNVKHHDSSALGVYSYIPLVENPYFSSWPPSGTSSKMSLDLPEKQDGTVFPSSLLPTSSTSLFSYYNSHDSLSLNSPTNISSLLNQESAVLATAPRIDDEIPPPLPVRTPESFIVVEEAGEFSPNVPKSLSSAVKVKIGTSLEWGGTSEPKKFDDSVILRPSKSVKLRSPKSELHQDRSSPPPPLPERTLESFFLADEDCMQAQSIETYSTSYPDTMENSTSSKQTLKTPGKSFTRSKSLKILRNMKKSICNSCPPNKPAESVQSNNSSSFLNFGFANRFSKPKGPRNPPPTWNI

[9] = target: Low molecular weight phosphotyrosine protein phosphatase (Homo sapiens, UniProt P24666); assay type: functional; settings: read-out: IC50_Mean;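 further: Dose-response confirmation assay measuring inhibition of LMPTP enzyme activity by fluorescence intensity read-out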
Chain of Low molecular weight phosphotyrosine protein phosphatase (P24666 whole entry): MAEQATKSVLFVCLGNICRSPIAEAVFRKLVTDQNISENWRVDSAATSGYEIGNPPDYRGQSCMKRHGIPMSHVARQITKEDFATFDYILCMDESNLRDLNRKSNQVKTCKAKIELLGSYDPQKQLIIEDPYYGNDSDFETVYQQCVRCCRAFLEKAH

Chain of Dual specificity protein phosphatase 3 (P51452 whole entry): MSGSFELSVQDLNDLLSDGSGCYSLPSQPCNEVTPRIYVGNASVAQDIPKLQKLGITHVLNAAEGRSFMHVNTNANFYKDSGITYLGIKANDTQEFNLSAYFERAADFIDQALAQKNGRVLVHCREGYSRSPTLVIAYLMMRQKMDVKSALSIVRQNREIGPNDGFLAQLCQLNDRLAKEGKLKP
Chain of Mu-type opioid receptor (P35372 whole entry): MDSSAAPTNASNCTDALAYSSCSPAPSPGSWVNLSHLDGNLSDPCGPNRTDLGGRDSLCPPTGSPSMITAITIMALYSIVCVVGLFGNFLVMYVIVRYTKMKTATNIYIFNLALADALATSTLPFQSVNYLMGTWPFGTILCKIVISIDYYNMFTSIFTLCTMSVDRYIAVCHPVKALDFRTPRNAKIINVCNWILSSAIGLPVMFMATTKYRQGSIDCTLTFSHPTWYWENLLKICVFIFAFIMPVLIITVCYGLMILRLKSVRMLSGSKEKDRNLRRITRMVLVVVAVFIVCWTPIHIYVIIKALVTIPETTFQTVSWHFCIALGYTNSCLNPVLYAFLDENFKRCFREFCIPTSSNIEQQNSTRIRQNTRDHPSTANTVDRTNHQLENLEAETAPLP
Chain of 5-hydroxytryptamine receptor 2A (P35363 whole entry): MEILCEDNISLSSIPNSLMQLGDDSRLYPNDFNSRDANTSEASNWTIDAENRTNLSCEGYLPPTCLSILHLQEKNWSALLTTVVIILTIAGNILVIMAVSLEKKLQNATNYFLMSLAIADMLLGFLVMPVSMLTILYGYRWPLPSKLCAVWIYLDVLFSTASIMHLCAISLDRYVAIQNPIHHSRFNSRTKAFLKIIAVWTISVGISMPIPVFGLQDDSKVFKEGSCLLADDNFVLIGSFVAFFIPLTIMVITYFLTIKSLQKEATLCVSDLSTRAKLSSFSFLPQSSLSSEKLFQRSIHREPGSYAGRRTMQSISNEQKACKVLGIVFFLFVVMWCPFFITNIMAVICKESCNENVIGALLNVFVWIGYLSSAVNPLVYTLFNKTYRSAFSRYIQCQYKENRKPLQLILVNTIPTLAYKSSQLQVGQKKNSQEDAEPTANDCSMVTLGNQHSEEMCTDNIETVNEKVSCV

COc1cccc(NC(=O)N(C)C[C@@H]2Oc3ncc(C#Cc4ccncc4)cc3C(=O)N([C@@H](C)CO)C[C@H]2C)c1
AC50 [1]: 36.1 µM (active)

COc1ccc(-c2cc(=O)n(CCC#N)[nH]2)cc1
AC50 [2]: 2.05 µM (active) | EC50 (Protein RecA): 1.02 µM (active) | IC50 [3]: 50.8 µM (active)

COc1cccc(OCC(O)CN2CCN(c3ccccn3)CC2)c1 (stereo unspecified)
EC50 (Mu-type opioid receptor): 92.4 µM (inactive) | EC50 [4]: 1.46 µM (active)

O=C(/C=C/c1ccc(Cl)cc1)NC(=S)Nc1ccc(C(=O)O)cc1
IC50 [5]: 5.89 µM (active) | IC50 [6]: 9.21 µM (active) | IC50 [7]: 5.4 µM (active) | IC50 [8]: 44.2 µM (inactive) | IC50 [9]: 15.4 µM (active)
